Results published in article PMC6364417, “Kinase inhibitor library screening identifies synergistic drug combinations effective in sensitive and resistant melanoma cells” (Journal of Experimental & Clinical Cancer Research : CR, 2019).
Like-named read-outs stand apart in the source and are kept apart here.

Tests used:
Assay in all cases: Kinase inhibitor library screening, PrestoBlue cell viability, 1 or 10 μM, 72 h
[1] = test system: A375 cells (parental)
[2] = test system: IGR37 cells (parental); conditions: for Cell viability in kinase inhibitor library screening, IGR37 Parental, 10μΜ / Cell viability in kinase inhibitor library screening, IGR37 Parental, 1μΜ / cell viability (kinase inhibitor library screening): in %
[3] = test system: 501Mel-GP cells (Dabrafenib-resistant); conditions: for Cell viability in kinase inhibitor library screening, 501Mel GP, 1μΜ / Cell viability in kinase inhibitor library screening, 501Mel GP, 10μΜ / cell viability (kinase inhibitor library screening): in %
[4] = test system: 501Mel cells (parental); conditions: for Cell viability in kinase inhibitor library screening, 501Mel Parental, 1μΜ / Cell viability in kinase inhibitor library screening, 501Mel Parental, 10μΜ / cell viability (kinase inhibitor library screening): in %
Summary of the method: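 Values are % viability versus untreated wells, measured by PrestoBlue after a 72 h drug exposure. Screens covered the parental line plus sublines rendered resistant to Vemurafenib or Dabrafenib, each analysed in at least duplicate.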

[5] = test system: A375-XP cells (Vemurafenib-resistant)
[6] = test system: A375-GP cells (Dabrafenib-resistant); conditions: for cell viability (kinase inhibitor library screening): in %
[7] = test system: IGR37-GP cells (Dabrafenib-resistant); conditions: for Cell viability in kinase inhibitor library screening, IGR37 GP, 1μΜ / cell viability (kinase inhibitor library screening): in %
[8] = test system: IGR37-XP cells (Vemurafenib-resistant)
[9] = test system: 501Mel-XP cells (Vemurafenib-resistant); conditions: for Cell viability in kinase inhibitor library screening, 501Mel XP, 1μΜ / Cell viability in kinase inhibitor library screening, 501Mel XP, 10μΜ / cell viability (kinase inhibitor library screening): in %

| Structure (SMILES) | Cell viability in kinase inhibitor library screening, A375 Parental, 10μΜ ([1]; A375 Parental, 10μΜ, 72 h) | Cell viability in kinase inhibitor library screening, A375 Parental, 1μΜ ([1]; A375 Parental, 1μΜ, 72 h) | Cell viability in kinase inhibitor library screening, IGR37 Parental, 10μΜ ([2]; IGR37 Parental, 10μΜ, 72 h) | Cell viability in kinase inhibitor library screening, 501Mel GP, 1μΜ ([3]; 501Mel GP, 1μΜ, 72 h) | Cell viability in kinase inhibitor library screening, 501Mel GP, 10μΜ ([3]; 501Mel GP, 10μΜ, 72 h) | Cell viability in kinase inhibitor library screening, 501Mel Parental, 1μΜ ([4]; 501Mel Parental, 1μΜ, 72 h) | Cell viability in kinase inhibitor library screening, 501Mel Parental, 10μΜ ([4]; 501Mel Parental, 10μΜ, 72 h) | Cell viability in kinase inhibitor library screening, A375 XP, 1μΜ ([5]; A375 XP, 1μΜ, 72 h) | Cell viability in kinase inhibitor library screening, A375 XP, 10μΜ ([5]; A375 XP, 10μΜ, 72 h) | Cell viability in kinase inhibitor library screening, A375 GP, 1μΜ ([6]; A375 GP, 1μΜ, 72 h) | Cell viability in kinase inhibitor library screening, A375 GP, 10μΜ ([6]; A375 GP, 10μΜ, 72 h) | Cell viability in kinase inhibitor library screening, IGR37 GP, 10μΜ ([7]; IGR37 GP, 10μΜ, 72 h) [%] | Cell viability in kinase inhibitor library screening, IGR37 GP, 1μΜ ([7]; IGR37 GP, 1μΜ, 72 h) | Cell viability in kinase inhibitor library screening, IGR37 XP, 10μΜ ([8]; IGR37 XP, 10μΜ, 72 h) [%] | Cell viability in kinase inhibitor library screening, IGR37 XP, 1μΜ ([8]; IGR37 XP, 1μΜ, 72 h, in %) | Cell viability in kinase inhibitor library screening, 501Mel XP, 1μΜ ([9]; 501Mel XP, 1μΜ, 72 h) | Cell viability in kinase inhibitor library screening, 501Mel XP, 10μΜ ([9]; 501Mel XP, 10μΜ, 72 h) | Cell viability in kinase inhibitor library screening, IGR37 Parental, 1μΜ ([2]; IGR37 Parental, 1μΜ, 72 h) | other results |
| --- | --- | --- | --- | --- | --- | --- | --- | --- | --- | --- | --- | --- | --- | --- | --- | --- | --- | --- | --- |
| Oc1cccc(-c2nc(N3CCOCC3)c3oc4ncccc4c3n2)c1 [PI-103] | – | – | – | – | – | – | – | – | – | – | – | – | – | – | – | – | – | – | viability at 1 µM ([1]; Homo sapiens, A-375, 72 h, read-out: cell viability, A375 Parental, 1μΜ): 61.4%; viability at 10 µM ([1]; Homo sapiens, A-375, 72 h, read-out: cell viability, A375 Parental, 10μΜ): 24.2%; viability at 1 µM ([2]; Homo sapiens, IGR-37, 72 h, read-out: cell viability, IGR37 Parental, 1μΜ): 76.3%; viability at 10 µM ([2]; Homo sapiens, IGR-37, 72 h, read-out: cell viability, IGR37 Parental, 10μΜ): 10.6%; viability at 1 µM ([3]; Homo sapiens, 72 h, read-out: cell viability, 501Mel GP, 1μΜ): 20%; viability at 10 µM ([3]; Homo sapiens, 72 h, read-out: cell viability, 501Mel GP, 10μΜ): 3.4%; viability at 1 µM ([4]; Homo sapiens, 72 h, read-out: cell viability, 501Mel Parental, 1μΜ): 36.3%; viability at 10 µM ([4]; Homo sapiens, 72 h, read-out: cell viability, 501Mel Parental, 10μΜ): 1.1%; viability at 1 µM ([5]; Homo sapiens, A-375, 72 h, read-out: cell viability, A375 XP, 1μΜ): 49.4%; viability at 10 µM ([5]; Homo sapiens, A-375, 72 h, read-out: cell viability, A375 XP, 10μΜ): 20.8%; viability at 1 µM ([6]; Homo sapiens, A-375, 72 h, read-out: cell viability, A375 GP, 1μΜ): 55.6%; viability at 10 µM ([6]; Homo sapiens, A-375, 72 h, read-out: cell viability, A375 GP, 10μΜ): 20.2%; viability at 1 µM ([7]; Homo sapiens, IGR-37, 72 h, read-out: cell viability, IGR37 GP, 1μΜ): 87.6%; viability at 10 µM ([7]; Homo sapiens, IGR-37, 72 h, read-out: cell viability, IGR37 GP, 10μΜ): 3.8%; viability at 1 µM ([8]; Homo sapiens, IGR-37, 72 h, read-out: cell viability, IGR37 XP, 1μΜ): 80.5%; viability at 10 µM ([8]; Homo sapiens, IGR-37, 72 h, read-out: cell viability, IGR37 XP, 10μΜ): 0.328%; viability at 1 µM ([9]; Homo sapiens, 72 h, read-out: cell viability, 501Mel XP, 1μΜ): 13.4%; viability at 10 µM ([9]; Homo sapiens, 72 h, read-out: cell viability, 501Mel XP, 10μΜ): -0.0754% |
| COc1ccc2c(c1OC)N=C(NC(=O)c1cccnc1)N1CCN=C21 [PIK-90] | 58.0 | 94.8 | 82.3 | 98.4 | 50.5 | 97.1 | 71.7 | 91.5 | 58.7 | 90.1 | 52.7 | 60.2 | 89.1 | 19.4 | 85.5 | 85.8 | 43.2 | – | – |
| CC(=O)Nc1nc(C)c(-c2ccc(Cl)c(S(=O)(=O)NCCO)c2)s1 [PIK-93] | – | – | – | – | – | – | – | – | – | – | – | – | – | – | – | – | – | – | Cell viability in kinase inhibitor library screening, A375 Parental, 1μΜ [1]: 97.3; Cell viability in kinase inhibitor library screening, A375 Parental, 10μΜ [1]: 47.7; Cell viability in kinase inhibitor library screening, IGR37 Parental, 1μΜ [2]: 96.9; Cell viability in kinase inhibitor library screening, IGR37 Parental, 10μΜ [2]: 72.6; Cell viability in kinase inhibitor library screening, 501Mel GP, 1μΜ [3]: 98.2; Cell viability in kinase inhibitor library screening, 501Mel GP, 10μΜ [3]: 25.1; Cell viability in kinase inhibitor library screening, 501Mel Parental, 1μΜ [4]: 88.1; Cell viability in kinase inhibitor library screening, 501Mel Parental, 10μΜ [4]: 25.0; Cell viability in kinase inhibitor library screening, A375 XP, 1μΜ [5]: 88.7; Cell viability in kinase inhibitor library screening, A375 XP, 10μΜ [5]: 36.0; Cell viability in kinase inhibitor library screening, A375 GP, 1μΜ [6]: 97.8; Cell viability in kinase inhibitor library screening, A375 GP, 10μΜ [6]: 37.8; Cell viability in kinase inhibitor library screening, IGR37 GP, 10μΜ [7]: 59.9%; Cell viability in kinase inhibitor library screening, IGR37 GP, 1μΜ [7]: 91.0; Cell viability in kinase inhibitor library screening, IGR37 XP, 10μΜ [8]: 27.5%; Cell viability in kinase inhibitor library screening, IGR37 XP, 1μΜ ([8]; in %): 84.1; Cell viability in kinase inhibitor library screening, 501Mel XP, 1μΜ [9]: 90.7; Cell viability in kinase inhibitor library screening, 501Mel XP, 10μΜ [9]: 10.6 |
| CCn1nnc2c(N3CCOCC3)nc(-c3ccc(NC(=O)Nc4ccc(C(=O)N5CCN(C)CC5)cc4)cc3)nc21 [PKI-402] | 12.7 | 21.3 | 2.7 | 21.4 | 0.548 | 15.4 | 0.476 | 20.0 | 8.5 | 23.7 | 9.7 | 3.4 | 66.1 | 1.9 | 25.5 | 15.3 | -0.1 | 35.8 | – |
| CCCS(=O)(=O)Nc1ccc(F)c(C(=O)c2c[nH]c3ncc(Cl)cc23)c1F [PLX-4720] | 14.6 | 32.1 | 31.4 | 104.7 | 77.9 | 63.2 | 55.8 | 102.9 | 79.1 | 83.9 | 78.1 | 79 | 97.0 | 52.5 | 99.4 | 96.2 | 64.4 | 44.1 | – |
| COc1ccc(COc2cc3oc(=O)c4cc(C(C)O)ccc4c3cc2OC)cc1 (stereo not shown) [Palomid 529] | 83.6 | – | 103.1 | 90.2 | 80.5 | 87.4 | 80.1 | 100.3 | 90.5 | 94.7 | 88.6 | 75.1 | 87.7 | 46.5 | 98.2 | 95.5 | 30.6 | 102.9 | – |
| Cc1ccc(Nc2nccc(N(C)c3ccc4c(C)n(C)nc4c3)n2)cc1S(N)(=O)=O.Cl [Pazopanib HCl] | – | – | – | – | – | – | – | – | – | – | – | – | – | – | – | – | – | – | cell viability (kinase inhibitor library screening) ([1]; A375 Parental, 10μΜ, in %): 71.9; cell viability (kinase inhibitor library screening) ([2]; IGR37 Parental, 1μΜ): 96.1; cell viability (kinase inhibitor library screening) ([2]; IGR37 Parental, 10μΜ): 84.7; cell viability (kinase inhibitor library screening) ([3]; 501Mel GP, 1μΜ): 95.6; cell viability (kinase inhibitor library screening) ([3]; 501Mel GP, 10μΜ): 65.3; cell viability (kinase inhibitor library screening) ([4]; 501Mel Parental, 1μΜ): 99.1; cell viability (kinase inhibitor library screening) ([4]; 501Mel Parental, 10μΜ): 86.1; cell viability (kinase inhibitor library screening) ([5]; A375 XP, 10μΜ, in %): 75.2; cell viability (kinase inhibitor library screening) ([6]; A375 GP, 1μΜ): 98.9; cell viability (kinase inhibitor library screening) ([6]; A375 GP, 10μΜ): 71.0; cell viability (kinase inhibitor library screening) ([7]; IGR37 GP, 1μΜ): 83.2; cell viability (kinase inhibitor library screening) ([7]; IGR37 GP, 10μΜ): 61.1; cell viability (kinase inhibitor library screening) ([8]; IGR37 XP, 10μΜ, in %): 65.8; cell viability (kinase inhibitor library screening) ([9]; 501Mel XP, 1μΜ): 88.8; cell viability (kinase inhibitor library screening) ([9]; 501Mel XP, 10μΜ): 48.8 |
